Measurements: patent US9593108B2, “Compounds and methods for antiviral treatment” (PTC Therapeutics, Inc., priority 2009, dated 2017)

What was measured:
[1] = tested on: HCV replicon RNA (GenBank Accession No. AJ242654); assay: HCV Replicon Assay (replicon RNA reduction and/or Fluc reporter signal); assay type: cell-based, Hepatitis C virus; conditions: Hepatitis C virus, 72 h, replicon-containing cells cultured with test compound for up to 3 days
How it was run: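 Bicistronic replicon-containing cells cultured with compound for up to 3 days, with interferon as positive control. Inhibition quantified by replicon RNA reduction and/or Fluc reporter signal; IC50 values generally derived from replicon RNA reduction.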

CC1(NS(=O)(=O)c2ccc(-c3c(C#N)c4cc(C(F)(F)F)cnc4n3C3CCC3)nc2)CC1 [Cpd 398, 6-[3-cyano-1-cyclobutyl-5-(trifluoromethyl)-1H-pyrrolo[2,3-b]pyridin-2-yl]-N-(1-methylcyclopropyl)pyridine-3-sulfonamide]
melting point: 172 to 175 °C
IC50 [1]: < 500 nM

CC(C)(NS(=O)(=O)c1ccc(-c2c(C(N)=O)c3cc(C(F)(F)F)cnc3n2C2CCC2)nc1)C(F)(F)F [Cpd 399, 1-cyclobutyl-5-(trifluoromethyl)-2-{5-[(1,1,1-trifluoro-2-methylpropan-2-yl)sulfamoyl]pyridin-2-yl}-1H-pyrrolo[2,3-b]pyridine-3-carboxamide]
melting point: 217 to 219 °C
IC50 [1]: < 500 nM

NC(=O)c1c(-c2ccc(S(=O)(=O)NC3(C(F)(F)F)CC3)cn2)n(C2CCC2)c2ncc(C(F)(F)F)cc12 [Cpd 400, 1-cyclobutyl-5-(trifluoromethyl)-2-(5-{[1-(trifluoromethyl)cyclopropyl]sulfamoyl}pyridin-2-yl)-1H-pyrrolo[2,3-b]pyridine-3-carboxamide]
melting point: 230 to 235 °C
IC50 [1]: < 500 nM

CC(C)(NS(=O)(=O)c1ccc(-c2c(C(N)=O)c3cc(C(F)(F)F)cnc3n2C2CCC2)cc1)C(F)(F)F [Cpd 401, 1-cyclobutyl-5-(trifluoromethyl)-2-{4-[(1,1,1-trifluoro-2-methylpropan-2-yl)sulfamoyl]phenyl}-1H-pyrrolo[2,3-b]pyridine-3-carboxamide]
melting point: 239 to 241 °C
IC50 [1]: < 500 nM

NC(=O)c1c(-c2ccc(S(=O)(=O)NC3(C(F)(F)F)CC3)cc2)n(C2CCC2)c2ncc(C(F)(F)F)cc12 [Cpd 402, 1-cyclobutyl-5-(trifluoromethyl)-2-(4-{[1-(trifluoromethyl)cyclopropyl]sulfamoyl}phenyl)-1H-pyrrolo[2,3-b]pyridine-3-carboxamide]
melting point: 261 to 263 °C
IC50 [1]: < 500 nM

CC(C)(C)NS(=O)(=O)c1ccc(-c2c(C(N)=O)c3cc(C(F)(F)F)cnc3n2C2CCC2)cc1 [Cpd 403, 2-[4-(tert-butylsulfamoyl)phenyl]-1-cyclobutyl-5-(trifluoromethyl)-1H-pyrrolo[2,3-b]pyridine-3-carboxamide]
melting point: 255 to 257 °C
IC50 [1]: < 500 nM

CC(C)(C)S(=O)(=O)Nc1ccc(-c2c(C(N)=O)c3cc(C(F)(F)F)cnc3n2C2CCC2)cc1 [Cpd 404, 2-{4-[(tert-butylsulfonyl)amino]phenyl}-1-cyclobutyl-5-(trifluoromethyl)-1H-pyrrolo[2,3-b]pyridine-3-carboxamide]
melting point: 257 to 259 °C
IC50 [1]: < 500 nM

Cc1nc2c(cc1C(F)(F)F)c(C#N)c(-c1ccc(S(=O)(=O)N[C@@H](C)C(F)(F)F)cn1)n2C1CCC1 [Cpd 405, 6-[3-cyano-1-cyclobutyl-6-methyl-5-(trifluoromethyl)-1H-pyrrolo[2,3-b]pyridin-2-yl]-N-[(2S)-1,1,1-trifluoropropan-2-yl]pyridine-3-sulfonamide]
melting point: 201 to 203 °C
IC50 [1]: < 500 nM

CC(C)(NS(=O)(=O)c1ccc(-c2c(C(N)=O)c3cc(C(F)(F)F)cnc3n2C2CCCC2)nc1)C(F)(F)F [Cpd 406, 1-cyclopentyl-5-(trifluoromethyl)-2-{5-[(1,1,1-trifluoro-2-methylpropan-2-yl)sulfamoyl]pyridin-2-yl}-1H-pyrrolo[2,3-b]pyridine-3-carboxamide]
melting point: 244 to 246 °C
IC50 [1]: < 500 nM

NC(=O)c1c(-c2ccc(S(=O)(=O)NC3(C(F)(F)F)CC3)cn2)n(C2CCCC2)c2ncc(C(F)(F)F)cc12 [Cpd 407, 1-cyclopentyl-5-(trifluoromethyl)-2-(5-{[1-(trifluoromethyl)cyclopropyl]sulfamoyl}pyridin-2-yl)-1H-pyrrolo[2,3-b]pyridine-3-carboxamide]
melting point: 262 to 264 °C
IC50 [1]: < 500 nM

NC(=O)c1c(-c2ccc(S(=O)(=O)NC3(C(F)(F)F)CC3)cc2)n(C2CCCC2)c2ncc(C(F)(F)F)cc12 [Cpd 408, 1-cyclopentyl-5-(trifluoromethyl)-2-(4-{[1-(trifluoromethyl)cyclopropyl]sulfamoyl}phenyl)-1H-pyrrolo[2,3-b]pyridine-3-carboxamide]
melting point: 277 to 279 °C
IC50 [1]: < 500 nM

C[C@H](NS(=O)(=O)c1ccc(-c2c(C(N)=O)c3cc(C(F)(F)F)cnc3n2C2CCCC2)nc1)C(F)(F)F [Cpd 409, 1-cyclopentyl-5-(trifluoromethyl)-2-(5-{[(2S)-1,1,1-trifluoropropan-2-yl]sulfamoyl}pyridin-2-yl)-1H-pyrrolo[2,3-b]pyridine-3-carboxamide]
melting point: 261 to 263 °C
IC50 [1]: < 500 nM

CCc1cnc2c(c1)c(C#N)c(-c1ccc(S(=O)(=O)N[C@@H](C)C(F)(F)F)cn1)n2-c1cnccn1 [Cpd 411, 6-[3-cyano-5-ethyl-1-(pyrazin-2-yl)-1H-pyrrolo[2,3-b]pyridin-2-yl]-N-[(2S)-1,1,1-trifluoropropan-2-yl]pyridine-3-sulfonamide]
melting point: 195 to 200 °C
IC50 [1]: < 500 nM

CCc1cnc2c(c1)c(C#N)c(-c1ccc(S(=O)(=O)N[C@@H](C)C(F)(F)F)cn1)n2-c1cc(F)ccn1 [Cpd 412, 6-[3-cyano-5-ethyl-1-(4-fluoropyridin-2-yl)-1H-pyrrolo[2,3-b]pyridin-2-yl]-N-[(2S)-1,1,1-trifluoropropan-2-yl]pyridine-3-sulfonamide]
melting point: 201 to 205 °C
IC50 [1]: < 500 nM

CCc1cnc2c(c1)c(C#N)c(-c1ccc(S(=O)(=O)N[C@@H](C)C(F)(F)F)cn1)n2-c1ccccc1 [Cpd 413, 6-(3-cyano-5-ethyl-1-phenyl-1H-pyrrolo[2,3-b]pyridin-2-yl)-N-[(2S)-1,1,1-trifluoropropan-2-yl]pyridine-3-sulfonamide]
melting point: 135 to 140 °C
IC50 [1]: < 500 nM

CCc1cnc2c(c1)c(C#N)c(-c1ccc(S(=O)(=O)N[C@@H](C)C(F)(F)F)cn1)n2-c1ccccn1 [Cpd 414, 6-[3-cyano-5-ethyl-1-(pyridin-2-yl)-1H-pyrrolo[2,3-b]pyridin-2-yl]-N-[(2S)-1,1,1-trifluoropropan-2-yl]pyridine-3-sulfonamide]
melting point: 190 to 195 °C
IC50 [1]: < 500 nM

C[C@H](NS(=O)(=O)c1ccc(-c2c(C#N)c3cc(C(F)(F)F)cnc3n2C2CCCCC2)nc1)C(F)(F)F [Cpd 415, 6-[3-cyano-1-cyclohexyl-5-(trifluoromethyl)-1H-pyrrolo[2,3-b]pyridin-2-yl]-N-[(2S)-1,1,1-trifluoropropan-2-yl]pyridine-3-sulfonamide]
melting point: 204 to 206 °C
IC50 [1]: < 500 nM

C[C@H](NS(=O)(=O)c1ccc(-c2c(C#N)c3cc(C(F)(F)F)cnc3n2C2CCCCC2)cc1)C(F)(F)F [Cpd 416, 4-[3-cyano-1-cyclohexyl-5-(trifluoromethyl)-1H-pyrrolo[2,3-b]pyridin-2-yl]-N-[(2S)-1,1,1-trifluoropropan-2-yl]benzenesulfonamide]
melting point: 190 to 192 °C
IC50 [1]: < 500 nM

CC(C)(NS(=O)(=O)c1ccc(-c2c(C#N)c3cc(C(F)(F)F)cnc3n2C2CCCCC2)nc1)C(F)(F)F [Cpd 417, 6-[3-cyano-1-cyclohexyl-5-(trifluoromethyl)-1H-pyrrolo[2,3-b]pyridin-2-yl]-N-(1,1,1-trifluoro-2-methylpropan-2-yl)pyridine-3-sulfonamide]
melting point: 177 to 179 °C
IC50 [1]: < 500 nM
